These results are taken from patent publication US11339144B2 (Navitor Pharmaceuticals, Inc., priority 2017, dated 2022).

The target of assay [1] is HA-GST-Rheb (GTP-γ-S loaded) activating mTORC1 (Homo sapiens (Human), UniProt Q15382). The assay can be described thus: Rheb-dependent in vitro kinase assay (Rheb-IVK; LanthaScreen or Western readout). The settings on record: Rheb-dependent in vitro kinase assay; read-out: IVK IC50. In kind it is biochemical. Background: Time-resolved FRET reads energy transfer from a long-lived donor to a nearby acceptor.
HA-GST-Rheb (GTP-γ-S loaded) activating mTORC1, sequence (Q15382 1-181): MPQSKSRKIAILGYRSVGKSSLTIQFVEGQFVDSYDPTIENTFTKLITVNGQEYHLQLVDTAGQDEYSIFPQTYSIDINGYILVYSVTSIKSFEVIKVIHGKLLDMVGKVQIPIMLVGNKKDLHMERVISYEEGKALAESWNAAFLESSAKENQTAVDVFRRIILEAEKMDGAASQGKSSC

The target in another assay is Rheb (Homo sapiens (Human), UniProt Q15382). The assay is described as follows: Affinity Selection Mass Spectrometry (ASMS). To be noted: affinity (R3/R0) in Affinity Selection Mass Spectrometry assay. Type of assay: binding. An outline of the steps:
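Affinity selection used 2 μM compound with 60 μM Rheb and 180 μM GDP for 30 min at room temperature. After 10 kDa ultrafiltration washes, protein was denatured in MeCN and bound compound quantified by C18 UPLC with Q-TOF MS, against a no-protein control.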

Rheb, sequence (Q15382 1-169 limits assumed): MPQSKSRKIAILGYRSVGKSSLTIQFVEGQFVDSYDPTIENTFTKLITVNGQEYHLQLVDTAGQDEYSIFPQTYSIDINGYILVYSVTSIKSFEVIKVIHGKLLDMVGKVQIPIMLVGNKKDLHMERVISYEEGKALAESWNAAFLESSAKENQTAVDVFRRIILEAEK

On to `Cc1cc(Sc2ccc(Cl)cc2)c2cc(C(=O)O)[nH]c2c1Br` [I-64, 7-bromo-4-(4-chlorophenylthio)-6-methyl-1H-indole-2-carboxylic acid], for which the IC50 in assay [1] was in the range of 10 to 100 µM. Further, the “ASMS (R3/R0)” value on Rheb was “B (an affinity (R3/R0) between 100% and 20%)”.

With `CC(C)(C)c1cccc(Sc2cc(Cl)cc3[nH]c(C(=O)O)cc23)c1` [I-65, 4-(3-tert-butylphenylthio)-6-chloro-1H-indole-2-carboxylic acid], the IC50 in assay [1] is below 10 µM. At Rheb, the “ASMS (R3/R0)” value was “B (an affinity (R3/R0) between 100% and 20%)”.

Turning to `O=C(O)c1cc2c(Br)cc(Oc3ccccc3)cc2n1Cc1ccc(C(=O)N(CCO)CCO)cc1` [I-67, 1-(4-(bis(2-hydroxyethyl)carbamoyl)benzyl)-4-bromo-6-phenoxy-1H-indole-2-carboxylic acid], the IC50 in assay [1] fell in the range of 10 to 100 µM. In addition, the “ASMS (R3/R0)” value on Rheb was “C (an affinity (R3/R0)<20%)”.

With `CN1CCN(C(=O)c2ccc(Cn3c(C(=O)O)cc4c(Br)cc(Oc5ccccc5)cc43)cc2)CC1` [I-68], the IC50 in assay [1] is above 3 µM. Besides, on Rheb, the “ASMS (R3/R0)” value is recorded as “C (an affinity (R3/R0)<20%)”.

As to `CN(CCO)C(=O)c1ccc(Cn2c(C(=O)O)cc3c(Br)cc(Oc4ccccc4)cc32)cc1` [I-69, 4-bromo-1-(4-((2-hydroxyethyl)(methyl)carbamoyl)benzyl)-6-phenoxy-1H-indole-2-carboxylic acid], the IC50 in assay [1] lay within 10 to 100 µM. Besides, the “ASMS (R3/R0)” value at Rheb is recorded as “C (an affinity (R3/R0)<20%)”.

On to `O=C(O)c1cc2c(Sc3ccc(Cl)cc3Cl)cc(Cl)cc2n1Cc1ccc(-c2ccncc2)cc1` [I-70, 6-chloro-4-(2,4-dichlorophenylthio)-1-(4-(pyridin-4-yl)benzyl)-1H-indole-2-carboxylic acid], for which the IC50 in assay [1] is below 10 µM. Also, on Rheb, the “ASMS (R3/R0)” value is “A (an affinity (R3/R0)>100%)”.

Consider `CN1CC(NC(=O)c2cc3c(Sc4ccc(Cl)cc4)cc(Cl)cc3[nH]2)C1` [I-71, 6-chloro-4-(4-chlorophenylthio)-N-(1-methylazetidin-3-yl)-1H-indole-2-carboxamide], for which the IC50 in assay [1] is below 10 µM. Besides, at Rheb, the “ASMS (R3/R0)” value is “B (an affinity (R3/R0) between 100% and 20%)”.

On to `O=C(O)c1cc2c(Sc3ccc(Cl)cc3Cl)cc(Cl)cc2n1Cc1ccc(-c2cccc(CO)c2)cc1` [I-72, 6-chloro-4-(2,4-dichlorophenylthio)-1-((3′-(hydroxymethyl)biphenyl-4-yl)methyl)-1H-indole-2-carboxylic acid], for which, in assay [1], the IC50 is below 10 µM. For the same molecule, at Rheb, the “ASMS (R3/R0)” value was “B (an affinity (R3/R0) between 100% and 20%)”.

For `O=C(O)c1cc2c(Sc3ccc(Cl)cc3)cc(Cl)c(Cl)c2[nH]1` [I-73, 6,7-dichloro-4-(4-chlorophenylthio)-1H-indole-2-carboxylic acid], the IC50 in assay [1] is below 10 µM. In addition, the “ASMS (R3/R0)” value on Rheb was “A (an affinity (R3/R0)>100%)”.

As to `OCc1cc2c(Sc3cccc4cccnc34)cc(Cl)cc2[nH]1` [I-74, (6-chloro-4-(quinolin-8-ylthio)-1H-indol-2-yl)methanol], the IC50 in assay [1] lay within 10 to 100 µM. Also, the “ASMS (R3/R0)” value on Rheb was “B (an affinity (R3/R0) between 100% and 20%)”.

In the case of `CN(C)C(=O)c1ccc(Cn2c(C(=O)O)cc3c(Cl)cc(Sc4ccc(Cl)c(Cl)c4)cc32)cc1` [I-75, 4-chloro-6-(3,4-dichlorophenylthio)-1-(4-(dimethylcarbamoyl)benzyl)-1H-indole-2-carboxylic acid], the IC50 in assay [1] is below 10 µM. Moreover, the “ASMS (R3/R0)” value at Rheb was “B (an affinity (R3/R0) between 100% and 20%)”.

Consider `OCc1cc2cc(SCc3ccc(Cl)cc3)c(Cl)cc2[nH]1` [I-76, (6-chloro-5-(4-chlorobenzylthio)-1H-indol-2-yl)methanol], for which the IC50 in assay [1] fell in the range of 10 to 100 µM. Further, the “ASMS (R3/R0)” value on Rheb was “B (an affinity (R3/R0) between 100% and 20%)”.

Turning to `Cc1c(-c2ccc(Cn3c(C(=O)O)cc4c(Sc5ccc(Cl)cc5Cl)cc(Cl)cc43)cc2)cnn1C` [I-77, 6-chloro-4-(2,4-dichlorophenylthio)-1-(4-(1,5-dimethyl-1H-pyrazol-4-yl)benzyl)-1H-indole-2-carboxylic acid], the IC50 in assay [1] is below 10 µM. The “ASMS (R3/R0)” value at Rheb was “B (an affinity (R3/R0) between 100% and 20%)”.

As for `Nc1ccc(-c2ccc(Cn3c(C(=O)O)cc4c(Sc5ccc(Cl)cc5Cl)cc(Cl)cc43)cc2)cc1` [I-78, 1-((4′-aminobiphenyl-4-yl)methyl)-6-chloro-4-(2,4-dichlorophenylthio)-1H-indole-2-carboxylic acid], the IC50 in assay [1] is below 10 µM. The “ASMS (R3/R0)” value on Rheb was “B (an affinity (R3/R0) between 100% and 20%)”.

Consider `CN1CCC(NC(=O)c2cc3c(Sc4ccc(Cl)cc4)cc(Cl)cc3[nH]2)CC1` [I-80], for which, in assay [1], the IC50 was above 100 µM. For the same molecule, the “ASMS (R3/R0)” value at Rheb was “B (an affinity (R3/R0) between 100% and 20%)”.

Regarding `Cc1ccc(Oc2cc(Cl)cc3[nH]c(C(=O)O)cc23)cc1C(F)(F)F` [I-81, 6-chloro-4-(4-methyl-3-(trifluoromethyl)phenoxy)-1H-indole-2-carboxylic acid], in assay [1], the IC50 was 10 to 100 µM. In addition, the “ASMS (R3/R0)” value on Rheb is “B (an affinity (R3/R0) between 100% and 20%)”.

`Cc1ccc(Oc2cc(Cl)cc3[nH]c(CO)cc23)cc1C(F)(F)F` [I-82, (6-Chloro-4-(4-methyl-3-(trifluoromethyl)phenoxy)-1H-indol-2-yl)methanol]: the IC50 in assay [1] was below 10 µM. Further, the “ASMS (R3/R0)” value at Rheb was “B (an affinity (R3/R0) between 100% and 20%)”.

As for `CN1CCCN(C(=O)c2cc3c(Sc4ccc(Cl)cc4)cc(Cl)cc3[nH]2)CC1` [I-83], the IC50 in assay [1] was above 100 µM. At Rheb, the “ASMS (R3/R0)” value was “B (an affinity (R3/R0) between 100% and 20%)”.

As to `O=C(O)c1cc2c(Sc3ccc(Oc4ccc(Cl)cc4)cc3)cc(Cl)cc2[nH]1` [I-84, 6-chloro-4-(4-(4-chlorophenoxy)phenylthio)-1H-indole-2-carboxylic acid], the IC50 in assay [1] is below 10 µM. The “ASMS (R3/R0)” value at Rheb was “B (an affinity (R3/R0) between 100% and 20%)”.

`O=C(O)c1cc2cc(SCc3ccc(Cl)cc3)c(Cl)cc2[nH]1` [I-85, 6-chloro-5-(4-chlorobenzylthio)-1H-indole-2-carboxylic acid]: the IC50 in assay [1] was in the range of 10 to 100 µM. The “ASMS (R3/R0)” value on Rheb is “B (an affinity (R3/R0) between 100% and 20%)”.

Take `O=C(O)c1cc2c(Sc3cccc4cccnc34)cc(Cl)cc2[nH]1` [I-87, 6-chloro-4-(quinolin-8-ylthio)-1H-indole-2-carboxylic acid]: in assay [1], the IC50 was in the range of 10 to 100 µM. The “ASMS (R3/R0)” value on Rheb is “B (an affinity (R3/R0) between 100% and 20%)”.

In the case of `O=C(O)c1cc2c(Sc3ccc(Cl)c(Cl)c3)cc(Sc3ccc(Cl)c(Cl)c3)cc2[nH]1` [I-88, 4,6-bis(3,4-dichlorophenylthio)-1H-indole-2-carboxylic acid], in assay [1], the IC50 was below 10 µM. Further, the “ASMS (R3/R0)” value at Rheb was “B (an affinity (R3/R0) between 100% and 20%)”.

`CN1CCC[C@H]1CNC(=O)c1cc2c(Br)cc(Sc3ccc(Cl)c(Cl)c3)cc2[nH]1` [I-89]: the IC50 in assay [1] is above 100 µM. For the same molecule, the “ASMS (R3/R0)” value on Rheb was “A (an affinity (R3/R0)>100%)”.

As to `CN1CCN(C(=O)c2cc3c(Sc4ccc(Cl)cc4)cc(Cl)cc3[nH]2)CC1` [I-90], in assay [1], the IC50 was above 100 µM. On Rheb, the “ASMS (R3/R0)” value is “B (an affinity (R3/R0) between 100% and 20%)”.

A word on the IC50: it is the concentration that gives 50% inhibition.
